# Values of other authors as cited in patent US11058138B2, “Composition for calcium supplementation” (ABIOGEN PHARMA S.P.A., priority 2017, dated 2021).
# Conditions: versus calcium carbonate
smiles,measurement,value
O=C([O-])CC(O)(CC(=O)[O-])C(=O)[O-].O=C([O-])CC(O)(CC(=O)[O-])C(=O)[O-].[Ca+2].[Ca+2].[Ca+2] [calcium citrate],Bioavailability higher than that of calcium carbonate,20-30%
